Results from US12110295B2, “WD40 repeat domain protein 5 (WDR5) degradation/disruption compounds and methods of use” (Icahn School of Medicine at Mount Sinai, priority 2018, dated 2024).

Target: WDR5 (Homo sapiens, UniProt P61964)
Experiment: Screening of putative WDR5 degraders by Western blot in MV4;11 and/or MIAPACA2 cells
Format: cell-based
Parameters: After WDR5 degrader treatment, cells were collected and lysed; endogenous in cells; host or cells: MV4;11 and/or MIAPACA2
Conditions: summary of screening, FIGS. 6-10
Method: MV4;11 cells were treated with DMSO or indicated compounds at 0.1 μM and 0.5 μM for 18 hours. […]. MIAPACA2 cells were treated with DMSO or indicated compounds at 0.5 μM and 1.0 μM for 18 hours.
MIAPACA2 cells were treated with DMSO or indicated compounds at 0.1 μM and 0.5 μM for 18 hours.
MIAPACA2 cells were treated with DMSO or indicated compounds at 0.5 μM and 1.0 μM or at 1.0 μM and 10 μM for 18 hours.
MV4;11 cells were treated with DMSO or indicated compounds at 0.1 μM and 1.0 μM for 18 hours.
WDR5 degraders were dissolved in DMSO and DMSO with no degraders was used as the control. 1×10^6 MV4;11 cells or 1×10^5 MIAPACA2 or 2×10^5 Hela cells were seeded in 2 mL medium for each well in […].
For prescreening of all the compounds, each test compound was added to the medium at indicated concentrations. After 18 h treatment, cells were collected.
After WDR5 degrader treatment, cells were collected and lysed. Total cell lysates were used for western blot. The following primary antibodies were used: WDR5 (Santa Cruz), vinculin (Cell Signaling Technology), tubulin (Cell Signaling Technology), GAPDH (Santa Cruz). Blots were imaged using fluorescence-labeled secondary antibodies on ChemiDoc™ Imaging Systems.

| SMILES | effective degradation of WDR5 in MV4;11 and/or MIAPACA2 cells |
| --- | --- |
| Cc1ncsc1-c1ccc(CNC(=O)[C@@H]2C[C@@H](O)CN2C(=O)[C@@H](NC(=O)CCCCCCCC(=O)NCCN2CCN(Cc3ccc(F)c(-c4ccc(N5C[C@@H](C)N(C)[C@@H](C)C5)c(NC(=O)c5c[nH]c(=O)cc5C(F)(F)F)c4)c3)CC2)C(C)(C)C)cc1 [XF078-15, N^1-(2-(4-((6-fluoro-3′-(6-oxo-4-(trifluoromethyl)-1,6-dihydropyridine-3-carboxamido)-4′-((3S,5R)-3,4,5-trimethylpiperazin-1-yl)-[1,1′-biphenyl]-3-yl)methyl)piperazin-1-yl)ethyl)-N^9-((S)-1-((2S,4R)-4-hydroxy-2-((4-(4-methylthiazol-5-yl)benzyl)carbamoyl)pyrrolidin-1-yl)-3,3-dimethyl-1-oxobutan-2-yl)nonanediamide] | able to effectively degrade WDR5 |
| C[C@@H]1CN(c2ccc(-c3cc(CN4CCN(CCNC(=O)CCCNc5cccc6c5C(=O)N(C5CCC(=O)NC5=O)C6=O)CC4)ccc3F)cc2NC(=O)c2c[nH]c(=O)cc2C(F)(F)F)C[C@H](C)N1C (stereo partly drawn) [XF078-20, N-(5′-((4-(2-(4-((2-(2,6-dioxopiperidin-3-yl)-1,3-dioxoisoindolin-4-yl)amino)butanamido)ethyl)piperazin-1-yl)methyl)-2′-fluoro-4-((3S,5R)-3,4,5-trimethylpiperazin-1-yl)-[1,1′-biphenyl]-3-yl)-6-oxo-4-(trifluoromethyl)-1,6-dihydropyridine-3-carboxamide] | able to effectively degrade WDR5 |
| C[C@@H]1CN(c2ccc(-c3cc(CN4CCN(CCNC(=O)CCCCNc5cccc6c5C(=O)N(C5CCC(=O)NC5=O)C6=O)CC4)ccc3F)cc2NC(=O)c2c[nH]c(=O)cc2C(F)(F)F)C[C@H](C)N1C (stereo partly drawn) [XF078-21, N-(5′-((4-(2-(5-((2-(2,6-dioxopiperidin-3-yl)-1,3-dioxoisoindolin-4-yl)amino)pentanamido)ethyl)piperazin-1-yl)methyl)-2′-fluoro-4-((3S,5R)-3,4,5-trimethylpiperazin-1-yl)-[1,1′-biphenyl]-3-yl)-6-oxo-4-(trifluoromethyl)-1,6-dihydropyridine-3-carboxamide] | able to effectively degrade WDR5 |
| C[C@@H]1CN(c2ccc(-c3cc(CN4CCN(CCNC(=O)CCCCCNc5cccc6c5C(=O)N(C5CCC(=O)NC5=O)C6=O)CC4)ccc3F)cc2NC(=O)c2c[nH]c(=O)cc2C(F)(F)F)C[C@H](C)N1C (stereo partly drawn) [XF078-22, N-(5′-((4-(2-(6-((2-(2,6-dioxopiperidin-3-yl)-1,3-dioxoisoindolin-4-yl)amino)hexanamido)ethyl)piperazin-1-yl)methyl)-2′-fluoro-4-((3S,5R)-3,4,5-trimethylpiperazin-1-yl)-[1,1′-biphenyl]-3-yl)-6-oxo-4-(trifluoromethyl)-1,6-dihydropyridine-3-carboxamide] | able to effectively degrade WDR5 |
| C[C@@H]1CN(c2ccc(-c3cc(CN4CCN(CCNC(=O)CCCCCCNc5cccc6c5C(=O)N(C5CCC(=O)NC5=O)C6=O)CC4)ccc3F)cc2NC(=O)c2c[nH]c(=O)cc2C(F)(F)F)C[C@H](C)N1C (stereo partly drawn) [XF078-23, N-(5′-((4-(2-(7-((2-(2,6-dioxopiperidin-3-yl)-1,3-dioxoisoindolin-4-yl)amino)heptanamido)ethyl)piperazin-1-yl)methyl)-2′-fluoro-4-((3S,5R)-3,4,5-trimethylpiperazin-1-yl)-[1,1′-biphenyl]-3-yl)-6-oxo-4-(trifluoromethyl)-1,6-dihydropyridine-3-carboxamide] | able to effectively degrade WDR5 |
| C[C@@H]1CN(c2ccc(-c3cc(CN4CCN(CCNC(=O)CCCCCCCNc5cccc6c5C(=O)N(C5CCC(=O)NC5=O)C6=O)CC4)ccc3F)cc2NC(=O)c2c[nH]c(=O)cc2C(F)(F)F)C[C@H](C)N1C (stereo partly drawn) [XF078-24, N-(5′-((4-(2-(8-((2-(2,6-dioxopiperidin-3-yl)-1,3-dioxoisoindolin-4-yl)amino)octanamido)ethyl)piperazin-1-yl)methyl)-2′-fluoro-4-((3S,5R)-3,4,5-trimethylpiperazin-1-yl)-[1,1′-biphenyl]-3-yl)-6-oxo-4-(trifluoromethyl)-1,6-dihydropyridine-3-carboxamide] | able to effectively degrade WDR5 |
| C[C@@H]1CN(c2ccc(-c3cc(CN4CCN(CCNC(=O)CCOCCOCCOCCOCCOCCNc5cccc6c5C(=O)N(C5CCC(=O)NC5=O)C6=O)CC4)ccc3F)cc2NC(=O)c2c[nH]c(=O)cc2C(F)(F)F)C[C@H](C)N1C (stereo partly drawn) [XF078-29, N-(5′-((4-(1-((2-(2,6-dioxopiperidin-3-yl)-1,3-dioxoisoindolin-4-yl)amino)-18-oxo-3,6,9,12,15-pentaoxa-19-azahenicosan-21-yl)piperazin-1-yl)methyl)-2′-fluoro-4-((3S,5R)-3,4,5-trimethylpiperazin-1-yl)-[1,1′-biphenyl]-3-yl)-6-oxo-4-(trifluoromethyl)-1,6-dihydropyridine-3-carboxamide] | able to effectively degrade WDR5 |
| Cc1ncsc1-c1ccc(CNC(=O)[C@@H]2C[C@@H](O)CN2C(=O)[C@@H](NC(=O)COCC(=O)N2CC=C(c3cc(NC(=O)c4c[nH]c(=O)cc4C(F)(F)F)c(N4C[C@@H](C)N(C)[C@@H](C)C4)cc3F)CC2)C(C)(C)C)cc1 [XF078-30, N-(4-fluoro-5-(1-(2-(2-(((S)-1-((2S,4R)-4-hydroxy-2-((4-(4-methylthiazol-5-yl)benzyl)carbamoyl)pyrrolidin-1-yl)-3,3-dimethyl-1-oxobutan-2-yl)amino)-2-oxoethoxy)acetyl)-1,2,3,6-tetrahydropyridin-4-yl)-2-((3S,5R)-3,4,5-trimethylpiperazin-1-yl)phenyl)-6-oxo-4-(trifluoromethyl)-1,6-dihydropyridine-3-carboxamide] | able to effectively degrade WDR5 |

Results, then the molecule that gave them:

| effective degradation of WDR5 in MV4;11 and/or MIAPACA2 cells | SMILES |
| --- | --- |
| able to effectively degrade WDR5 | C[C@@H]1CN(c2ccc(-c3cc(CN4CCN(CCNC(=O)CCOCCNc5cccc6c5C(=O)N(C5CCC(=O)NC5=O)C6=O)CC4)ccc3F)cc2NC(=O)c2c[nH]c(=O)cc2C(F)(F)F)C[C@H](C)N1C (stereo partly drawn) [XF078-25, N-(5′-((4-(2-(3-(2-((2-(2,6-dioxopiperidin-3-yl)-1,3-dioxoisoindolin-4-yl)amino)ethoxy)propanamido)ethyl)piperazin-1-yl)methyl)-2′-fluoro-4-((3S,5R)-3,4,5-trimethylpiperazin-1-yl)-[1,1′-biphenyl]-3-yl)-6-oxo-4-(trifluoromethyl)-1,6-dihydropyridine-3-carboxamide] |
| able to effectively degrade WDR5 | C[C@@H]1CN(c2ccc(-c3cc(CN4CCN(CCNC(=O)CCOCCOCCNc5cccc6c5C(=O)N(C5CCC(=O)NC5=O)C6=O)CC4)ccc3F)cc2NC(=O)c2c[nH]c(=O)cc2C(F)(F)F)C[C@H](C)N1C (stereo partly drawn) [XF078-26, N-(5′-((4-(2-(3-(2-(2-((2-(2,6-dioxopiperidin-3-yl)-1,3-dioxoisoindolin-4-yl)amino)ethoxy)ethoxy)propanamido)ethyl)piperazin-1-yl)methyl)-2′-fluoro-4-((3S,5R)-3,4,5-trimethylpiperazin-1-yl)-[1,1′-biphenyl]-3-yl)-6-oxo-4-(trifluoromethyl)-1,6-dihydropyridine-3-carboxamide] |
| able to effectively degrade WDR5 | C[C@@H]1CN(c2ccc(-c3cc(CN4CCN(CCNC(=O)CCOCCOCCOCCNc5cccc6c5C(=O)N(C5CCC(=O)NC5=O)C6=O)CC4)ccc3F)cc2NC(=O)c2c[nH]c(=O)cc2C(F)(F)F)C[C@H](C)N1C (stereo partly drawn) [XF078-27, N-(5′-((4-(1-((2-(2,6-dioxopiperidin-3-yl)-1,3-dioxoisoindolin-4-yl)amino)-12-oxo-3,6,9-trioxa-13-azapentadecan-15-yl)piperazin-1-yl)methyl)-2′-fluoro-4-((3S,5R)-3,4,5-trimethylpiperazin-1-yl)-[1,1′-biphenyl]-3-yl)-6-oxo-4-(trifluoromethyl)-1,6-dihydropyridine-3-carboxamide] |
| able to effectively degrade WDR5 | C[C@@H]1CN(c2ccc(-c3cc(CN4CCN(CCNC(=O)CCOCCOCCOCCOCCNc5cccc6c5C(=O)N(C5CCC(=O)NC5=O)C6=O)CC4)ccc3F)cc2NC(=O)c2c[nH]c(=O)cc2C(F)(F)F)C[C@H](C)N1C (stereo partly drawn) [XF078-28, N-(5′-((4-(1-((2-(2,6-dioxopiperidin-3-yl)-1,3-dioxoisoindolin-4-yl)amino)-15-oxo-3,6,9,12-tetraoxa-16-azaoctadecan-18-yl)piperazin-1-yl)methyl)-2′-fluoro-4-((3S,5R)-3,4,5-trimethylpiperazin-1-yl)-[1,1′-biphenyl]-3-yl)-6-oxo-4-(trifluoromethyl)-1,6-dihydropyridine-3-carboxamide] |
